Experimental data as given in patent publication US20240287139A1, “A NOVEL COMPOUND ACTING AGAINST A SELECT GROUP OF BACTERIA” (priority 2021, published 2024).
In brackets after ≈: the same amount, converted by molar mass. Like-named read-outs stand apart in the source and are kept apart here. *1 amine or outer side, *2 acyl side, *3 side chain or, on linkers, in order; H or OH if unused. Where a SMILES comes first, the peptide text is derived from it. Bridges are numbered along the chain shown (N, C = ends). [ ]: non-standard residue; d: D form. The star is where a group is joined. ξ: configuration not given here. ξThr(3R)(O-yl) = C[C@@H](O[*:3])C(N[*:1])C(=O)[*:2]; βAsp = O=C(O)[C@H](CC(=O)[*:2])N[*:1]; His(π-Me) = Cn1cncc1C[C@H](N)C(=O)O; For = O=C*

Experiments:
[1] = test system: Mycobacterium tuberculosis H37Rv mc^26020; experiment: microbe, parasite or virus in culture; type: cell-based
[2] = test system: Pseudomonas aeruginosa PA01; experiment: microbe, parasite or virus in culture; type: cell-based
E. coli gyrase = E. coli gyrase (Escherichia coli, UniProt P0AES4+P0AES6); type: biochemical; conditions: 100 μM compound
Sequence of E. coli gyrase (P0AES4 whole entry, one chain of several): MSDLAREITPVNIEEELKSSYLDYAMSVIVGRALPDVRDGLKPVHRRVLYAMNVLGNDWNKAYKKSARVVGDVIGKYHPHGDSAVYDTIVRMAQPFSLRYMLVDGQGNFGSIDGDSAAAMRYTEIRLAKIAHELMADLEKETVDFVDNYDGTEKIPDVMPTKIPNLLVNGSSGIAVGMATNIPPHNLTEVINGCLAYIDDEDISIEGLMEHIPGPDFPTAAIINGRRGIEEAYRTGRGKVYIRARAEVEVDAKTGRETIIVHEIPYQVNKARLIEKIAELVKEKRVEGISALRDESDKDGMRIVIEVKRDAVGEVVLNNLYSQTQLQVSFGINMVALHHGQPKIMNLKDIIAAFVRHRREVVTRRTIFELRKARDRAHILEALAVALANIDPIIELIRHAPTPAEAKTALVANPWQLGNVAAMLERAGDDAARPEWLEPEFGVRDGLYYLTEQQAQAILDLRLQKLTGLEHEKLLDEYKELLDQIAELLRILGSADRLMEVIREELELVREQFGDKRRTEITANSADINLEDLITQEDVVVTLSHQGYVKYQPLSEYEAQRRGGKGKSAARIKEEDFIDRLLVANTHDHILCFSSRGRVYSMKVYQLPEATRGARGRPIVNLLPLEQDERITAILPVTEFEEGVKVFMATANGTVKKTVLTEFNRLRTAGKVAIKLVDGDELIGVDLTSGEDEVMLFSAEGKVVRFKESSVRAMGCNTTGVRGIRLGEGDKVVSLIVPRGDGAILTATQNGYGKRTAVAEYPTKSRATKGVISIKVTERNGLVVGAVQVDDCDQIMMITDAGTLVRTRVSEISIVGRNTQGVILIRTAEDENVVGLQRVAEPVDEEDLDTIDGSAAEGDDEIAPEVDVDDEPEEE

Escherichia coli MG1655 = experiment: microbe, parasite or virus in culture; type: cell-based
MtbGyrase [3] = target: T1, MtbGyrase (Mycobacterium tuberculosis, UniProt P9WG45+P9WG47); experiment: DNA-stimulated ATPase assay (NADH-coupled); conditions: 250 nM gyrase, 100 μM drug
T1 sequence (P9WG45 whole entry, looked up): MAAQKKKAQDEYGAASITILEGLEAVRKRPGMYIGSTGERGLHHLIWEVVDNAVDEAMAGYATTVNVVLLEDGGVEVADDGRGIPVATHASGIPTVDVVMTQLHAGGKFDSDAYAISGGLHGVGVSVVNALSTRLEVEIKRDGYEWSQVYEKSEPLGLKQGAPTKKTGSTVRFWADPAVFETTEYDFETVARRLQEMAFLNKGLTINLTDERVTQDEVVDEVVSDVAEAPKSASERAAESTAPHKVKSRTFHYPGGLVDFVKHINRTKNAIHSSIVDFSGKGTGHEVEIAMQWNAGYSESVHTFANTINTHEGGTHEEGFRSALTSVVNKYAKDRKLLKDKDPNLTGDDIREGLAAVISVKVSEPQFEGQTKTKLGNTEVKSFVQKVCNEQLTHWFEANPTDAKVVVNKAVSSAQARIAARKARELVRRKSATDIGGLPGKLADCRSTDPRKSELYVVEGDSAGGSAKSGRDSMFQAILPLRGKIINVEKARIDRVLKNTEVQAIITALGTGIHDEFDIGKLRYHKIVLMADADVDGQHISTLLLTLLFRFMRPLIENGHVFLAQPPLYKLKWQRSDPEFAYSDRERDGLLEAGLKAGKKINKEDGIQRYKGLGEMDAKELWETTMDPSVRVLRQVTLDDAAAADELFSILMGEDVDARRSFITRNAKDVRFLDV
T1 sequence (P9WG47 whole entry, looked up): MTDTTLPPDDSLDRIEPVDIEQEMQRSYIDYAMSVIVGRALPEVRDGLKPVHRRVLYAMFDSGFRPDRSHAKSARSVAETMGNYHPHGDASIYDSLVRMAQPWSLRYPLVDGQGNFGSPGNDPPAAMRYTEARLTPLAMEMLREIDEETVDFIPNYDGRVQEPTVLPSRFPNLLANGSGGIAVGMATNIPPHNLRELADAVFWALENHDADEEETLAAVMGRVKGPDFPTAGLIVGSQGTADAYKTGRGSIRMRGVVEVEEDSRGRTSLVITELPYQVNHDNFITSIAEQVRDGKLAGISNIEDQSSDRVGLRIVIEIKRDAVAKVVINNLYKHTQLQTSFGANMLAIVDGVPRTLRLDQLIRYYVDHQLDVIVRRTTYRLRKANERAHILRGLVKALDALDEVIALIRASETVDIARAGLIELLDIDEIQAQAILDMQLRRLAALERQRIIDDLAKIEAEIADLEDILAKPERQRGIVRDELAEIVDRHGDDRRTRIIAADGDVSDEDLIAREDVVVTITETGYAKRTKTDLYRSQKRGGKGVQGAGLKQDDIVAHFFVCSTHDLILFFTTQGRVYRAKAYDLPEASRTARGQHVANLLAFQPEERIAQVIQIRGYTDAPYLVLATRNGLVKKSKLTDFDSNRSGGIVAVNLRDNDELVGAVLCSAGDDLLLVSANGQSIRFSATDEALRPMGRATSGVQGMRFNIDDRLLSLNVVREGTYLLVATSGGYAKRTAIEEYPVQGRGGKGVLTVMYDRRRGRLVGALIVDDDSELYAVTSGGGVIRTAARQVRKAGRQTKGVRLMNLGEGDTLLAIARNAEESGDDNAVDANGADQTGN

[4] = test system: Veillonella ratti KLE 2365; experiment: microbe, parasite or virus in culture; type: cell-based; conditions: KLE2365; Veillonella ratti KLE 2365, anaerobic conditions, human stool isolate
HepG2 [5] = test system: HepG2
[6] = test system: Lactobacillus paracasei KLE 2504; experiment: microbe, parasite or virus in culture; type: cell-based; conditions: Lacticaseibacillus paracasei, KLE2504; Lactobacillus paracasei KLE 2504, anaerobic conditions, human stool isolate
physchem = conditions: water
HEK293 [7] = test system: HEK293
[8] = test system: commensal bacteria including Lactobacillus sp. and Bacteroides sp.; type: cell-based
[9] = test system: Salmonella enterica KLE 2601; experiment: microbe, parasite or virus in culture; type: cell-based; conditions: KLE2601; Salmonella enterica KLE 2601, anaerobic conditions, human stool isolate
Escherichia coli BW25113 = experiment: microbe, parasite or virus in culture; type: cell-based
FaDu [10] = experiment: cells; conditions: Homo sapiens, read-out: Human cell line (IC50)
MtbGyrase [11] = target: T1, MtbGyrase; experiment: biochemical; set-up: species or system M. tuberculosis; conditions: 20 nM MtbGyrase
FaDu [12] = test system: FaDu
E. coli ATCC 25922 = experiment: Septicemia model, survival; type: in vivo, mice; conditions: 1 h after infection
Protocol: The inventors next tested the compound of Formula IV in a simple model of septicemia infection with E. coli to evaluate its potential for activity in vivo. […] Mice were infected with E. coli ATCC25922 intraperitoneally for 1 hour followed by intraperitoneal administration of the compound of Formula IV.
Animal study was performed at Northeastern University, approved by Northeastern IACUC, and was performed according to institutional animal care and policies. Experiments were not randomized nor blinded, as it was not deemed necessary. Female CD-1 mice (20-25 g, experimentally naive, 6 weeks old) from Charles River were used for all studies. The compound of Formula IV was tested in a septicemia model against E. coli ATCC 25922. Mice were infected with 0.5 ml of E. coli ATCC 25922 suspension in BHI with 5% mucin (1×10^6 to 5×10^6) via intraperitoneal injection. This dose achieves >83% mortality within 24 h after infection. At 1 h after infection, mice were treated by the compound of Formula IV from 10 mg kg^−1 to 100 mg kg^−1 by intraperitoneal injection. Infection control mice were treated with 50 mg kg^−1 gentamicin as positive control. Survival was monitored for 120 h.

wild type E. coli = experiment: microbe, parasite or virus in culture; type: cell-based; conditions: Escherichia coli
[13] = test system: Enterococcus faecalis KLE 2341; experiment: microbe, parasite or virus in culture; type: cell-based; conditions: KLE2341; Enterococcus faecalis KLE 2341, anaerobic conditions, human stool isolate
[14] = test system: Klebsiella pneumoniae ATCC 700603; experiment: microbe, parasite or virus in culture; type: cell-based; conditions: ATCC700603
E. coli WO153 = experiment: Macromolecule incorporation assay; type: cell-based; conditions: 8×MIC
Protocol: Incorporation of ^14C-thymidine (DNA), ^14C-uridine (RNA), ^14C-L-amino acid mixture (protein), ^14C-acetic acid (fatty acid) and ^14C-acetyl-glucosamine (peptidoglycan) was determined in cells treated with 8×MIC of the compound of Formula IV (grey bars). Ciprofloxacin (8×MIC), rifampicin (8×MIC), chloramphenicol (8×MIC), triclosan (8×MIC) and fosfomycin (8×MIC) were used as controls (white bars). There were n=3 biologically independent samples.
Macromolecular synthesis assay against DNA, RNA, protein and fatty acid were analyzed by ImQuest BioSciences Inc. (MD, USA) with E. coli WO153 cells.

[15] = test system: Escherichia coli ATCC25922; experiment: microbe, parasite or virus in culture; type: cell-based
[16] = test system: M. tuberculosis H37Rv mc^26020; experiment: Time-dependent killing; type: cell-based; conditions: 10×MIC
M. tuberculosis = experiment: Microscopy, cell elongation; type: cell-based; conditions: 10×MIC, 48 hours of treatment
HepG2 [17] = experiment: cells; conditions: Homo sapiens, HepG2, read-out: Human cell line (IC50)
[18] = type: in vivo, mouse; conditions: intraperitoneally at 100 mg kg^−1, observed for 24 hours
Escherichia coli WO153 = experiment: microbe, parasite or virus in culture; type: cell-based
[19] = test system: Mycobacterium abscessus ATCC 19977; experiment: microbe, parasite or virus in culture; type: cell-based; conditions: Mycobacteroides abscessus, ATCC19977
[20] = test system: Bacteroides stercoris KLE 2537; experiment: microbe, parasite or virus in culture; type: cell-based; conditions: KLE2537; Bacteroides stercoris KLE 2537, anaerobic conditions, human stool isolate
[21] = test system: Bacteroides fragilis KLE 2244; experiment: microbe, parasite or virus in culture; type: cell-based; conditions: KLE2244; Bacteroides fragilis KLE 2244, anaerobic conditions, human stool isolate
[22] = test system: Acinetobacter baumannii ATCC 17978; experiment: microbe, parasite or virus in culture; type: cell-based; conditions: ATCC17978
Escherichia coli ΔSbmA = experiment: microbe, parasite or virus in culture; type: cell-based; conditions: Keio collection mutant
[23] = test system: Mycobacterium smegmatis mc^2155; experiment: microbe, parasite or virus in culture; type: cell-based; conditions: Mycolicibacterium smegmatis
[24] = test system: Lactobacillus reuteri LTH5448; experiment: microbe, parasite or virus in culture; type: cell-based; conditions: Limosilactobacillus reuteri; Lactobacillus reuteri LTH5448, anaerobic conditions
[25] = test system: Mycobacterium tuberculosis H37Rv mc^26020 ΔbacA; experiment: microbe, parasite or virus in culture; type: cell-based
MtbGyrase [26] = target: T1, MtbGyrase; type: biochemical, M. tuberculosis; conditions: 100 μM compound, 0-20 nM enzyme
Escherichia coli ΔtolC = experiment: microbe, parasite or virus in culture; type: cell-based
[27] = test system: Mycobacterium tuberculosis H37Rv mc^26020 mCherry; experiment: microbe, parasite or virus in culture; type: cell-based
[28] = test system: Streptococcus parasanguinis KLE 2509; experiment: microbe, parasite or virus in culture; type: cell-based; conditions: KLE2509; Streptococcus parasanguinis KLE 2509, anaerobic conditions, human stool isolate
[29] = test system: Staphylococcus aureus HG003; experiment: microbe, parasite or virus in culture; type: cell-based
[30] = test system: Clostridium perfringens KLE 2523; experiment: microbe, parasite or virus in culture; type: cell-based; conditions: KLE2523
HEK293 [31] = experiment: cells; conditions: Homo sapiens, HEK293, read-out: Human cell line (IC50)
[32] = target: E. coli topoisomerase IV (topo IV) (Escherichia coli, UniProt P0AFI2+P20083); type: biochemical; conditions: 100 μM compound; strong cleavage visible at 5 nM enzyme
Sequence of E. coli topoisomerase IV (topo IV) (P20083 whole entry): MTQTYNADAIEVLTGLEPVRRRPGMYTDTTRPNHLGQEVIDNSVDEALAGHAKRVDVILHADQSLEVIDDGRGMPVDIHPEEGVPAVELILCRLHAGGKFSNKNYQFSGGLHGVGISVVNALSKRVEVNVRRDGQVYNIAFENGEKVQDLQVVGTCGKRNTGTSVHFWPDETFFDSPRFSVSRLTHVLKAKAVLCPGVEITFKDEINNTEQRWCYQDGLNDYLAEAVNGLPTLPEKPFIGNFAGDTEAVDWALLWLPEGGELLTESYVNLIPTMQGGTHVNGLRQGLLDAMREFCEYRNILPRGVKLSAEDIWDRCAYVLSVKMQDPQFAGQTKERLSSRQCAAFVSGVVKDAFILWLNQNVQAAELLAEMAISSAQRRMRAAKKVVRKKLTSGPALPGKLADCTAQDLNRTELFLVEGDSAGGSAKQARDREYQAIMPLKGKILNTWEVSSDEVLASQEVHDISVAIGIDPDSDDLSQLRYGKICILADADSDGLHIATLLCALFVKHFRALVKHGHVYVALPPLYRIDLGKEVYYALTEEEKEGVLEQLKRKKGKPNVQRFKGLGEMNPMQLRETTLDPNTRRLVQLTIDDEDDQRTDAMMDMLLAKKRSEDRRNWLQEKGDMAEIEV
Sequence of E. coli topoisomerase IV (topo IV) (P0AFI2 whole entry): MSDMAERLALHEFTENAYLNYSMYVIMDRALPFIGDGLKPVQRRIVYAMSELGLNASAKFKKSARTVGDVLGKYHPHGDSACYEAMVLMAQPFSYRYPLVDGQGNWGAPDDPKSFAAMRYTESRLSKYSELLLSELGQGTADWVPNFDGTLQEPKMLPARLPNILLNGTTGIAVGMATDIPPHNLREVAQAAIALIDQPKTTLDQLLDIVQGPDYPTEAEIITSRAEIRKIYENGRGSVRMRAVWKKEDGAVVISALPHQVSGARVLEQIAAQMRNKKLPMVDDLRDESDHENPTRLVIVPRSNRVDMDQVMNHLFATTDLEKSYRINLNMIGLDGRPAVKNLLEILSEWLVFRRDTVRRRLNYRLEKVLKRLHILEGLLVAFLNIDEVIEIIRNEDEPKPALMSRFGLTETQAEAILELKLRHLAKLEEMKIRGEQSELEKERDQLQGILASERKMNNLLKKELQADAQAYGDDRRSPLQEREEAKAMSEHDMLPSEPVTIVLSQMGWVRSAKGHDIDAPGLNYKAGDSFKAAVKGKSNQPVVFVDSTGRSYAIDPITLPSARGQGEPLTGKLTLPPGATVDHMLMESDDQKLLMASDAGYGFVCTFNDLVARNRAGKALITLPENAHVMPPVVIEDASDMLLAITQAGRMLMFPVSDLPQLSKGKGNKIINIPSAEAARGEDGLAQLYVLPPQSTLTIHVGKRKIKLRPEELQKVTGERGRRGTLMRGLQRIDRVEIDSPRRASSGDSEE

[33] = Mycobacterium tuberculosis, M. tuberculosis H37Rv mc^26020, read-out: MIC

Compound `COc1c(N2C[C@@H]3CCCN[C@@H]3C2)c(F)cc2c(=O)c(C(=O)O)cn(C3CC3)c12` [Moxifloxacin, reference compound] has an MIC [1, 33] of 0.125 µg/mL (≈ 0.311 µM).
For `C[C@H]1OC(=O)C[C@@H](C(=O)O)NC(=O)[C@H](CO)NC(=O)[C@@H](CCCNC(=N)N)NC(=O)CNC(=O)[C@H](Cc2ccccc2)NC(=O)[C@@H](CO)NC(=O)C[C@@H](C(=O)O)NC(=O)[C@H](Cc2cncn2C)NC(=O)C1NC(=O)[C@@H](CCCNC(=N)N)NC(=O)[C@@H](NC(=O)[C@H](Cc1c[nH]c2ccccc12)NC=O)[C@@H](C)O` (stereo partly drawn) [compound of Formula IV] (For-WT[dR][ξThr(3R)(O-yl)][His(π-Me)][βAsp][dS]FG[dR]SD-OH; ester 4-12), the MIC [2] was greater than 128 µg/mL, the “inhibition of DNA supercoiling by gyrase compared with supercoil relaxation by topo IV” value (E. coli gyrase) was “more potent inhibitor of DNA supercoiling by gyrase” and the “DNA cleavage by E. coli gyrase” value (E. coli gyrase; strong cleavage visible at 5 nM enzyme) was “stimulated DNA cleavage”. The MIC (Escherichia coli MG1655) was 16 µg/mL, the “overall rate (vmax) of ATPase activity” value (MtbGyrase [3]) was 45±7.2 ATP·s^−1 per enzyme and the MIC [4] was greater than 128 µg/mL. For the same compound, the “toxicity against human cell line” value (HepG2 [5]) was “no toxicity”, the MIC [6] was greater than 128 µg/mL and the solubility (physchem) was greater than 40 mg/mL. For the same compound, the “toxicity against human cell line” value (HEK293 [7]) was “no toxicity”, the “activity against commensal bacteria” value [8] was “no activity” and the MIC [9] was 128 µg/mL. For the same compound, the MIC (Escherichia coli BW25113) was 16 µg/mL, the IC50 (FaDu [10]) was greater than 128 µg/mL and the “DNA cleavage in the absence of ATP” value (MtbGyrase [11]; absence of ATP) was “little to no cleavage”. For the same compound, the IC50 (MtbGyrase [11]; in the presence of ATP) was roughly 1000 nM, the “toxicity against human cell line” value (FaDu [12]) was “no toxicity” and the “efficacy, septicemia infection with E. coli ATCC25922” value (E. coli ATCC 25922; 100 mg kg^−1 dose intraperitoneal) was “completely protected”. The “efficacy, septicemia infection with E. coli ATCC25922” value (E. coli ATCC 25922; single dose of 25 mg kg^−1 intraperitoneal) was “significant efficacy”, the MIC ([1]; Mycobacterium tuberculosis H37Rv mc^26020) was 0.25 µg/mL and the MIC [1, 33] was 0.25 µg/mL. The MIC (wild type E. coli) was 16 µg/mL, the MIC [13] was greater than 128 µg/mL and the MIC [14] was 32 µg/mL. The “effect on DNA synthesis (^14C-thymidine incorporation)” value (E. coli WO153) was “inhibits DNA synthesis”, the “effect on RNA, protein and fatty acid synthesis” value (E. coli WO153) was “less of an effect” and the MIC [15] was 8 µg/mL. The “killing of exponentially growing M. tuberculosis” value ([16]; exponential cells) was “highly bactericidal”, the “killing of stationary M. tuberculosis” value ([16]; stationary cells) was “highly bactericidal” and the “cell length compared to nontreated cells” value (M. tuberculosis) was “approximately 2 times”. For the same compound, the IC50 (HepG2 [17]) was greater than 128 µg/mL, the “toxicity in a mouse, survival” value [18] was “no indications of toxicity” and the MIC (Escherichia coli WO153; Escherichia coli WO153) was 0.0625 µg/mL. For the same compound, the MIC (Escherichia coli WO153; Escherichia coli, E. coli WO153, compromised penetration barrier, read-out: MIC) was 0.0625 µg/mL, the MIC [19] was 16 µg/mL and the MIC [20] was greater than 128 µg/mL. The MIC [21] was 64 µg/mL, the MIC [22] was 128 µg/mL and the MIC (Escherichia coli ΔSbmA) was 128 µg/mL. The MIC [23] was 8 µg/mL, the MIC [24] was greater than 128 µg/mL and the MIC [25] was 16 µg/mL. For the same compound, the “DNA cleavage by MtbGyrase” value (MtbGyrase [26]) was “induced DNA cleavage”, the “supercoiling activity of MtbGyrase” value (MtbGyrase [26]) was “inhibited the supercoiling activity” and the “MIC of tolC deletion mutant, times higher as compared to E. coli WO153” value (Escherichia coli ΔtolC) was 4 times. For the same compound, the “MIC of tolC deletion mutant, times lower than in the wild type” value (Escherichia coli ΔtolC) was 64 times, the MIC (Escherichia coli ΔtolC; Escherichia coli ΔtolC, Keio collection mutant) was 0.25 µg/mL and the MIC (Escherichia coli ΔtolC; Escherichia coli, E. coli tolC deletion mutant, read-out: MIC) was 0.25 µg/mL. The MIC [27] was 0.0625 µg/mL, the MIC [28] was greater than 128 µg/mL and the MIC [29] was 128 µg/mL. For the same compound, the MIC [30] was 64 µg/mL, the IC50 (HEK293 [31]) was greater than 128 µg/mL and the “DNA cleavage by E. coli topo IV” value [32] was “stimulated DNA cleavage”.
